Reference: ChEMBL document CHEMBL3352662, “Flow synthesis and biological activity of aryl sulfonamides as selective carbonic anhydrase IX and XII inhibitors” (Bioorg Med Chem Lett, 2014)

Columns and labels:
Carbonic anhydrase 9 = Carbonic anhydrase 9 (Homo sapiens, UniProt Q16790); experiment: Inhibition of CA-9 (unknown origin) after 15 mins by CO2 hydration assay
Carbonic anhydrase 2 [1] = biological target: T1, Carbonic anhydrase 2 (Homo sapiens, UniProt P00918); experiment: Inhibition of CA-2 (unknown origin) after 15 mins by CO2 hydration assay
Carbonic anhydrase 1 [2] = biological target: T2, Carbonic anhydrase 1 (Homo sapiens, UniProt P00915); experiment: Inhibition of CA-1 (unknown origin) at 10 uM after 15 mins by CO2 hydration assay
Target sequence in this assay (P00915 2-261 limits assumed): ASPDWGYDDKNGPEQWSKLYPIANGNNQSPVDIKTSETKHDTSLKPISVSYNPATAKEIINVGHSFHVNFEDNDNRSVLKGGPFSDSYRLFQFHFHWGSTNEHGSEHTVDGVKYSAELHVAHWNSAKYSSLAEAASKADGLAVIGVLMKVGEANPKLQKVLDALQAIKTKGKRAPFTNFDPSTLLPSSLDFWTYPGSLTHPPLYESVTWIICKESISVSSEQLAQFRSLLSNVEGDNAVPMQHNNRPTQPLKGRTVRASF

Carbonic anhydrase 1 [3] = biological target: T2, Carbonic anhydrase 1; experiment: Inhibition of CA-1 (unknown origin) after 15 mins by CO2 hydration assay
Target sequence in this assay (P00915 whole entry): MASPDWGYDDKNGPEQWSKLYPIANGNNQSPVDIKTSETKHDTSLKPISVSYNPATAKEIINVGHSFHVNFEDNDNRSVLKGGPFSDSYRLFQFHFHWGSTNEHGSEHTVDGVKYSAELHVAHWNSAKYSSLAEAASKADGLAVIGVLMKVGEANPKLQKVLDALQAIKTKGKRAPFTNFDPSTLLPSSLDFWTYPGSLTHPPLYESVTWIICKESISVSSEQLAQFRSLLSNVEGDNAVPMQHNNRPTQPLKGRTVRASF

Carbonic anhydrase 2 [4] = biological target: T1, Carbonic anhydrase 2; experiment: Inhibition of CA-2 (unknown origin) at 10 uM after 15 mins by CO2 hydration assay
Carbonic anhydrase 12 = Carbonic anhydrase 12 (Homo sapiens, UniProt O43570); experiment: Inhibition of CA-12 (unknown origin) after 15 mins by CO2 hydration assay
Sequence of Carbonic anhydrase 12 (O43570 whole entry): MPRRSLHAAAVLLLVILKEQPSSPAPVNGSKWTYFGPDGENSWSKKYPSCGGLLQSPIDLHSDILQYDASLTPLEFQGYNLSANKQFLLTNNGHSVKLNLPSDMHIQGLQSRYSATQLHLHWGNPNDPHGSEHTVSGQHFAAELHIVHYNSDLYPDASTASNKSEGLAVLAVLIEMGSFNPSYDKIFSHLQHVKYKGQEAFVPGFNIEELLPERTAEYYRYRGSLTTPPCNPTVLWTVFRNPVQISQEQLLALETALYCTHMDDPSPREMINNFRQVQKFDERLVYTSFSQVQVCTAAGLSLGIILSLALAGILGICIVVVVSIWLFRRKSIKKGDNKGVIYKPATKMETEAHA

IC50 (Carbonic anhydrase 9) [µM]	IC50 (Carbonic anhydrase 2 [1]) [µM]	inhibition (Carbonic anhydrase 1 [2]) [%]	IC50 (Carbonic anhydrase 1 [3]) [µM]	inhibition (Carbonic anhydrase 2 [4]) [%]	IC50 (Carbonic anhydrase 12) [µM]	SMILES
0.128	7.32	39	> 50			O=[N+]([O-])c1ccc(S(=O)(=O)Nc2ccccc2)cc1
0.09	> 50	35	> 50	45		Cc1ccc(S(=O)(=O)Nc2ccccc2)cc1
0.217	3.62	39	> 50			Cc1ccc(S(=O)(=O)NCC(=O)O)cc1
0.074	> 50	36	> 50	47		CC(=O)c1ccc(S(=O)(=O)Nc2ccccc2)cc1
0.07	8.07	40	> 50			CCCC(C)NS(=O)(=O)c1ccc(C)cc1 (centres undefined)
0.09	5.1	38	> 50		0.226	Cc1ccc(S(=O)(=O)Nc2ccccc2-c2ccccc2)cc1
0.079	> 50	39	> 50	45	0.179	COc1ccc(S(=O)(=O)Nc2ccccc2)cc1OC
0.094	6.67	39	> 50			Cc1ccc(S(=O)(=O)NCCCN(C)C)cc1
0.076	> 50	34	> 50	44	4.28	Cc1ccc(S(=O)(=O)NCc2ccccc2)cc1

SMILES	IC50 (Carbonic anhydrase 9) [µM]	IC50 (Carbonic anhydrase 2 [1]) [µM]	inhibition (Carbonic anhydrase 1 [2]) [%]	IC50 (Carbonic anhydrase 1 [3]) [µM]	inhibition (Carbonic anhydrase 2 [4]) [%]	IC50 (Carbonic anhydrase 12) [µM]
Cc1ccc(S(=O)(=O)N(C)c2ccccc2)cc1	0.093	> 50	39	> 50	45	0.266
